# Earlier results, collected in patent publication US8647680B2, “Methods and compositions for treatment of lesioned sites of body vessels” (Abbott Cardiovascular Systems Inc., priority 2006, dated 2014).
# Assays:
# macrophage cells = conditions: oral administration
SMILES,solubility in water [mM],apoptosis of macrophage cells (macrophage cells)
[N]=O [nitric oxide],2 to 3,–
N=C(N)NCCC[C@H](N)C(=O)O [L-arginine],–,increased apoptosis of macrophage cells
